Test results published in patent US20080145313A1, “Compositions and Methods for the Treatment and Prevention of Neoplastic Disorders” (Genesis Research & Development Corporation Limited, priority 2006, published 2008).

Key:
[1] = system: A549 cells; experiment: Growth inhibition of siRNA-transfected A549 cells, SYBR Green I DNA content; type: cell-based, human; conditions: for Growth Inhibition in A549 cells / Growth Inhibition in A549 cells by 10 nM siRNA: 10 nM siRNA, DNA content 96 hours after transfection; for Growth Inhibition in A549 cells by 10 nM siRNA: transporter gene targets
Method in brief: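 Growth read-out: cellular DNA quantified with SYBR Green I (485/535 nm) 96 h after transfection, cells frozen, thawed and lysed in PBS/1% Triton X-100, pH 7. Cells (A549, 5×10^3 cells/cm^2) received 10 nM siRNA by RNAiMAX; non-specific siRNA served as control; triplicate wells averaged.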

[2] = system: A549 xenograft tumor; experiment: Xenograft tumor growth of A549 cells transfected with siRNA pre-implantation in CD-1 nude mice; type: in vivo, mouse; conditions: for tumor growth inhibition compared to the control groups: cells transfected pre-implantation, monitored 33 or 26 days; for tumor growth rate compared to control groups: A549 cells transfected with siRNA before s.c. inoculation
Method: To determine the effect of RRM1 knockdown on tumor growth, A549 cells (human lung cancer cell line; ATCC No. CCL-185) were reverse-transfected prior to implantation in CD-1 nude mice. In 175 cm^2 culture flasks, 10×10^6 A549 cells (in RPMI supplemented with 10% fetal calf serum) were added to pre-made lipoplexes. To make lipoplexes, Lipofectamine RNAiMAX in serum-free RPMI was added to an equal volume of serum-free RPMI containing siRNA (RRM1-2; SEQ ID NO: 4831 (DNA), and SEQ ID NO: 5137 (RNA)) and a control siRNA (SEQ ID NO: 4804 (DNA), and SEQ ID NO: 5301 (RNA)). After addition of cells, the final concentration of siRNA in the flask was 10 nM. Untransfected cells served as a further control. Flasks were incubated at 37° C. for 24 h to allow transfection to proceed.
The cells were harvested by trypsinization 24 h after the transfection, washed twice in PBS and viable cells were counted. Equal numbers of cells (1×10^7) were inoculated into CD-1 nude mice (n=7-9). Briefly, 5 to 7 weeks old nude mice were subcutaneously (s.c.) injected in the right flank with A549 cells in 100 μl PBS. Tumor growth was monitored 3 times per week by measuring tumor sizes using a digital caliper. Tumor volume was expressed in […] using the formula: V=a^2×b×0.52, where a and b represent the minimum and maximum tumor diameter, respectively. Mean tumor volumes calculated from each measurement were then plotted in a standard graph to compare the tumor growth of transfected cells to that of control.
To determine the effect of siRNA-mediated knockdown of HK-II, CAD, IMPDH2, RRM2, SLC16A1 and SLC29A1 on tumor growth, A549 cells (human lung cancer cell line; ATCC No. CCL-185) were reverse-transfected prior to implantation in CD-1 nude mice as described above with siRNAs given in SEQ ID NO: 5307 (DNA), and SEQ ID NO: 5304 (RNA) for RRM2, SEQ ID NO: 4932 (DNA), and SEQ ID NO: 5227 (RNA) for ENT1, SEQ ID NO: 4813 (DNA), and SEQ ID NO: 5119 (RNA) for HK-II, SEQ ID NO: 4827 (DNA), and SEQ ID NO: 5133 (RNA) for CAD, SEQ ID NO: 4879 (DNA), and SEQ ID NO: 5182 (RNA) for IMPDH2 and SEQ ID NO: 4924 (DNA), and SEQ ID NO: 5219 (RNA) for SLC16A1, respectively. The siRNA given in SEQ ID NO: 4804 (DNA), and SEQ ID NO: 5301 (RNA) was used as control.
In two separate experiments, CD-1 mice were divided into five groups that received untransfected A549 cells, cells transfected with control siRNA or three different siRNAs (as listed above), respectively. Cells were transfected in vitro using the method as described in Example 8, and 24 h after transfection, s.c. inoculated into mice. Tumor growth was measured 3 times per week. In the first experiment, mice received cells transfected with siRNA targeting RRM2, HK-II or SLC29A1 and were monitored for 33 days. In the second experiment, mice received cells transfected with siRNA targeting CAD, IMPDH2 or SLC16A1, and were monitored for 26 days. […] Similarly, preliminary data indicated tumor growth rate was reduced for the groups receiving cells transfected with siRNA targeting CAD and SLC16A1. Twenty-six days after cell inoculation, the tumor volume for mice with cells transfected with siRNA targeting CAD or SLC16A1 was 97.2±7.3 mm^3 or 110.1±28.1 mm^3, respectively.

[3] = system: target transcript mRNA in A549 cells; experiment: Level of mRNA of target transcript in A549 cells by quantitative RT-PCR (Tables 12 and 13); type: cell-based, human; conditions: 24 h post-transfection; for mRNA knockdown of transporter gene target transcript, 0.1 nM / mRNA knockdown of energy and metabolism gene target transcript, 0.1 nM: 0.1 nM siRNA; for mRNA knockdown of transporter gene target transcript, 1 nM / mRNA knockdown of energy and metabolism gene target transcript, 1 nM: 1 nM siRNA
Method in brief: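 Target mRNA was measured by SYBR Green quantitative RT-PCR using random-primed cDNA, normalised to HPRT and Lamin. Samples came from A549 cells 24 h post-transfection with 0.1, 1.0 or 10 nM siRNA.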

Substance	Growth Inhibition in A549 cells [1]	Growth Inhibition in A549 cells by 10 nM siRNA [1]	mRNA knockdown of transporter gene target transcript, 0.1 nM [3]	mRNA knockdown of transporter gene target transcript, 1 nM [3]	further results
SEQ ID NO: 4813: siRNA targeting HK-II (chain 1 AATGAGACCAATCTCACAGTTGTGG; chain 2 AAUGAGACCAAUCUCACAGUUGUGG; chemistry not given here; one strand in two spellings)	++ (inhibits by at least 75%)				tumor growth inhibition compared to the control groups [2]: No tumor growth inhibition
SEQ ID NO: 4827: siRNA targeting CAD (chain 1 TTCAAGAGAATTTGCTGCCTCGCTC; chain 2 UUCAAGAGAAUUUGCUGCCUCGCUC; chemistry not given here; one strand in two spellings)	+ (inhibits by at least 50%)				tumor growth rate compared to control groups [2]: reduced; tumor volume ([2]; twenty-six days after cell inoculation, preliminary data): 97.2±7.3 mm^3
SEQ ID NO: 4831: Stealth siRNA targeting RRM1 (chain 1 TAGAAGTGCATACTAGTGAGTTTGC; chain 2 UAGAAGUGCAUACUAGUGAGUUUGC; Stealth siRNA, chemical pattern not given here; one strand in two spellings)	++ (inhibits by at least 75%)				growth inhibition, A549 ([1]; 0.1 nM siRNA, 96 h post-transfection, normalized to control siRNA): 50%; mice with measurable tumors ([2]; A549 cells transfected with 10 nM siRNA 24 h before s.c. inoculation): two of eight; tumor growth rate compared to control groups [2]: reduced dramatically; average tumor size ([2]; six weeks after the cell inoculation, 10 nM siRNA pre-implantation): 49.1±18.4 mm^3
SEQ ID NO: 4879: siRNA targeting IMPDH2 (chain 1 AATACCGCCTGTAAGCGCCATTGCT; chain 2 AAUACCGCCUGUAAGCGCCAUUGCU; Both strands are one antisense strand in DNA/RNA notation, chemistry not given here, further chemistry not given here; one strand in two spellings)	++ (inhibits by at least 75%)				tumor growth inhibition compared to the control groups [2]: No tumor growth inhibition
SEQ ID NO: 4974: siRNA targeting ABCC5 (MRP5) (chain 1 AACCTCTTCCATTAGAAACAAACTC; chain 2 AACCUCUUCCAUUAGAAACAAACUC; chemistry not given here; one strand in two spellings)		+ (inhibits by at least 50%)	− (<50% mRNA knockdown)	+ (50-70% mRNA knockdown)	
SEQ ID NO: 4975: siRNA targeting ABCC5 (MRP5) (chain 1 ATTCTGAGCTGAGAATGCATGGAGG; chain 2 AUUCUGAGCUGAGAAUGCAUGGAGG; chemistry not given here; one strand in two spellings)		++ (inhibits by at least 75%)	− (<50% mRNA knockdown)	+ (50-70% mRNA knockdown)	
SEQ ID NO: 4977: siRNA targeting ABCB1 (MDR1) (chain 1 AAACGATGAGCTATCACAATGGTGG; chain 2 AAACGAUGAGCUAUCACAAUGGUGG; chemistry not given here; one strand in two spellings)		− (no growth inhibition)	− (<50% mRNA knockdown)	− (<50% mRNA knockdown)	
SEQ ID NO: 4978: siRNA targeting ABCB1 (MDR1) (chain 1 TTGGTACTAAGCTTTCTGTCTTGGG; chain 2 UUGGUACUAAGCUUUCUGUCUUGGG; chemistry not given here; one strand in two spellings)		− (no growth inhibition)	− (<50% mRNA knockdown)	− (<50% mRNA knockdown)	
SEQ ID NO: 5306: Stealth siRNA targeting RRM2 (chain 1 TGTCCAGGTGTTTGAACATCAGGC; chain 2 UGUACCAGGUGUUUGAACAUCAGGC; Stealth siRNA, chemical pattern not given here)	++ (inhibits by at least 75%)				mRNA knockdown of energy and metabolism gene target transcript, 0.1 nM [3]: ++ (70-90% mRNA knockdown); mRNA knockdown of energy and metabolism gene target transcript, 1 nM [3]: + (50-70% mRNA knockdown)
SEQ ID NO: 5308: Stealth siRNA targeting RRM2 (chain 1 TTATACATCTGCCAGATATCATGGT; chain 2 UUAUACAUCUGCCAGAUAUCAUGGU; Stealth siRNA, chemical pattern not given here; one strand in two spellings)	++ (inhibits by at least 75%)				mRNA knockdown of energy and metabolism gene target transcript, 0.1 nM [3]: ++ (70-90% mRNA knockdown); mRNA knockdown of energy and metabolism gene target transcript, 1 nM [3]: ++ (70-90% mRNA knockdown)
